{
  "source": "patent US20250318529A1",
  "about": "“METHOD FOR MOSQUITO CONTROL” (SYNGENTA CROP PROTECTION AG, priority 2022, published 2025)",
  "assay_in_all_cases": "CDC bottle bioassay, adult female mosquitoes",
  "key": {"[1]": {"tested_on": "An. gambiae Kisumu", "assay_type": "in vivo, Anopheles gambiae", "conditions": "pyrethroid Susceptible", "description": "(§1) Examples B1-B3: Bottle Assay Based on the Guideline for Evaluating Insecticide Resistance in Vectors Using the CDC Bottle Bioassay\n[…] Once dry, approximately twenty five non-blood fed adult female mosquitoes of the appropriate species and strains (each two or three days old) were aspirated from the stock culture and gently blown into the exposure bottle. The lid of the bottle was replaced, and the bottle placed upright out of direct sun light under standard culture conditions, nominally 28° C. and 60-80% relative humidity.\n(§2) A stopwatch was started, and the assessment of the knock-down were made after 60 minutes. A mosquito was said to be knocked down if it was unable to stand, following the CDC definition.\n(§3) After one hour the mosquitoes were carefully removed from the bottle with an aspirator and placed in a recovery cup. The mosquitoes were supplied with a 10% sucrose solution on a cotton wool bung, and stored under culture conditions. Assessments of the mortality were made after 24 and 48 hours.\n(§4) Each treatment was replicated a minimum of three times, with the mean knockdown or mortality recorded. In each study, a set of bottles was infested with a known insecticide susceptible strain of mosquitoes from the same genera as the resistant strains."}, "[2]": {"tested_on": "An. gambiae KisKDR", "assay_type": "in vivo, Anopheles gambiae", "conditions": "pyrethroid Resistant", "description": "as §1\n(§5) 1 ml of acetone containing a test compound at a defined concentration, and 1500 ppm Mero (Bayer Crop Science) was added to a 250 ml glass bottle, the bottle was placed on a rolling table to coat the inner surfaces as the solvent evaporated. Once dry, approximately twenty five non-blood fed adult female mosquitoes of the appropriate species and strains (each two or three days old) were aspirated from the stock culture and gently blown into the exposure bottle. The lid of the bottle was replaced, and the bottle placed upright out of direct sun light under standard culture conditions, nominally 28° C. and 60-80% relative humidity.\nas §2, §3, §4"}, "[3]": {"tested_on": "An. gambiae Tiassale", "assay_type": "in vivo, Anopheles gambiae", "conditions": "pyrethroid Resistant", "description": "as §1, §5, §2, §3, §4"}, "[4]": {"tested_on": "An. gambiae M'Bé", "assay_type": "in vivo, Anopheles gambiae", "conditions": "pyrethroid Resistant", "description": "as §1, §5, §2, §3, §4"}, "[5]": {"tested_on": "Anopheles stephensi", "assay_type": "in vivo", "conditions": "pyrethroid Susceptible", "description": "as §1, §5, §2, §3, §4"}, "[6]": {"conditions": "Table B1, 25 μg/bottle + 1.5 mg Mero"}, "[7]": {"conditions": "Table B1, 50 μg/bottle + 1.5 mg Mero"}, "[8]": {"conditions": "Table B1, 250 μg/bottle + 1.5 mg Mero"}, "[9]": {"conditions": "Table B2, 50 μg/bottle + 1.5 mg Mero"}, "[10]": {"conditions": "Table B2, 250 μg/bottle + 1.5 mg Mero"}, "[11]": {"conditions": "Table B3, 25 μg/bottle + 1.5 mg Mero"}, "[12]": {"conditions": "Table B3, 50 μg/bottle + 1.5 mg Mero"}, "[13]": {"conditions": "Table B3, 250 μg/bottle + 1.5 mg Mero"}},
  "data": [
    {"smiles": "CCN1OCC(NC(=O)c2ccc(C3=NOC(c4cc(Cl)c(F)c(Cl)c4)(C(F)(F)F)C3)cc2C)C1=O", "note": "(stereo not shown) [Isocycloseram]", "values": [
      {"measurement": "Mean % mortality 60 minutes", "setting": "[1]; [6]", "result": 56.8, "unit": "%"},
      {"measurement": "Mean % mortality 24 hours", "setting": "[1]; [6]", "result": 89.6, "unit": "%"},
      {"measurement": "Mean % mortality 60 minutes", "setting": "[1]; [7]", "result": 88.8, "unit": "%"},
      {"measurement": "Mean % mortality 24 hours", "setting": "[1]; [7]", "result": 100, "unit": "%"},
      {"measurement": "Mean % mortality 60 minutes", "setting": "[1]; [8]", "result": 99.2, "unit": "%"},
      {"measurement": "Mean % mortality 24 hours", "setting": "[1]; [8]", "result": 100, "unit": "%"},
      {"measurement": "Mean % mortality 60 minutes", "setting": "[1]; [9]", "result": 80.77, "unit": "%"},
      {"measurement": "Mean % mortality 24 hours", "setting": "[1]; [9]", "result": 100, "unit": "%"},
      {"measurement": "Mean % mortality 60 minutes", "setting": "[1]; [10]", "result": 80.77, "unit": "%"},
      {"measurement": "Mean % mortality 24 hours", "setting": "[1]; [10]", "result": 100, "unit": "%"},
      {"measurement": "Mean % mortality 60 minutes", "setting": "[1]; [11]", "result": 98.8, "unit": "%"},
      {"measurement": "Mean % mortality 24 hours", "setting": "[1]; [11]", "result": 100, "unit": "%"},
      {"measurement": "Mean % mortality 60 minutes", "setting": "[1]; [12]", "result": 96.4, "unit": "%"},
      {"measurement": "Mean % mortality 24 hours", "setting": "[1]; [12]", "result": 100, "unit": "%"},
      {"measurement": "Mean % mortality 60 minutes", "setting": "[1]; [13]", "result": 99.2, "unit": "%"},
      {"measurement": "Mean % mortality 24 hours", "setting": "[1]; [13]", "result": 100, "unit": "%"},
      {"measurement": "Mean % mortality 60 minutes", "setting": "[2]; [9]", "result": 86.7, "unit": "%"},
      {"measurement": "Mean % mortality 24 hours", "setting": "[2]; [9]", "result": 100, "unit": "%"},
      {"measurement": "Mean % mortality 60 minutes", "setting": "[2]; [10]", "result": 100, "unit": "%"},
      {"measurement": "Mean % mortality 24 hours", "setting": "[2]; [10]", "result": 100, "unit": "%"},
      {"measurement": "Mean % mortality 60 minutes", "setting": "[3]; [6]", "result": 38.4, "unit": "%"},
      {"measurement": "Mean % mortality 24 hours", "setting": "[3]; [6]", "result": 89.6, "unit": "%"},
      {"measurement": "Mean % mortality 60 minutes", "setting": "[3]; [7]", "result": 84, "unit": "%"},
      {"measurement": "Mean % mortality 24 hours", "setting": "[3]; [7]", "result": 100, "unit": "%"},
      {"measurement": "Mean % mortality 60 minutes", "setting": "[3]; [8]", "result": 98.4, "unit": "%"},
      {"measurement": "Mean % mortality 24 hours", "setting": "[3]; [8]", "result": 100, "unit": "%"},
      {"measurement": "Mean % mortality 60 minutes", "setting": "[3]; [11]", "result": 96.9, "unit": "%"},
      {"measurement": "Mean % mortality 24 hours", "setting": "[3]; [11]", "result": 100, "unit": "%"},
      {"measurement": "Mean % mortality 60 minutes", "setting": "[3]; [12]", "result": 99.2, "unit": "%"},
      {"measurement": "Mean % mortality 24 hours", "setting": "[3]; [12]", "result": 100, "unit": "%"},
      {"measurement": "Mean % mortality 60 minutes", "setting": "[3]; [13]", "result": 99.1, "unit": "%"},
      {"measurement": "Mean % mortality 24 hours", "setting": "[3]; [13]", "result": 100, "unit": "%"},
      {"measurement": "Mean % mortality 60 minutes", "setting": "[4]; [9]", "result": 37.8, "unit": "%"},
      {"measurement": "Mean % mortality 24 hours", "setting": "[4]; [9]", "result": 70.3, "unit": "%"},
      {"measurement": "Mean % mortality 60 minutes", "setting": "[4]; [10]", "result": 89.3, "unit": "%"},
      {"measurement": "Mean % mortality 24 hours", "setting": "[4]; [10]", "result": 100, "unit": "%"},
      {"measurement": "Mean % mortality 60 minutes", "setting": "[5]; [6]", "result": 12, "unit": "%"},
      {"measurement": "Mean % mortality 24 hours", "setting": "[5]; [6]", "result": 70.4, "unit": "%"},
      {"measurement": "Mean % mortality 60 minutes", "setting": "[5]; [7]", "result": 60.8, "unit": "%"},
      {"measurement": "Mean % mortality 24 hours", "setting": "[5]; [7]", "result": 98.4, "unit": "%"},
      {"measurement": "Mean % mortality 60 minutes", "setting": "[5]; [8]", "result": 79.2, "unit": "%"},
      {"measurement": "Mean % mortality 24 hours", "setting": "[5]; [8]", "result": 100, "unit": "%"}
    ]},
    {"smiles": "CC1(C)C(C=C(Cl)Cl)C1C(=O)OCc1cccc(Oc2ccccc2)c1", "note": "(stereo not shown) [Permethrin, reference compound]", "values": [
      {"measurement": "Mean % mortality 60 minutes", "setting": "[1]; Table B1, 20 μg/bottle", "result": 100, "unit": "%"},
      {"measurement": "Mean % mortality 24 hours", "setting": "[1]; Table B1, 20 μg/bottle", "result": 100, "unit": "%"},
      {"measurement": "Mean % mortality 60 minutes", "setting": "[1]; Table B2, 20 μg/bottle", "result": 100, "unit": "%"},
      {"measurement": "Mean % mortality 24 hours", "setting": "[1]; Table B2, 20 μg/bottle", "result": 100, "unit": "%"},
      {"measurement": "Mean % mortality 60 minutes", "setting": "[1]; Table B3, 20 μg/bottle", "result": 100, "unit": "%"},
      {"measurement": "Mean % mortality 24 hours", "setting": "[1]; Table B3, 20 μg/bottle", "result": 100, "unit": "%"},
      {"measurement": "Mean % mortality 60 minutes", "setting": "[2]; Table B2, 20 μg/bottle", "result": 100, "unit": "%"},
      {"measurement": "Mean % mortality 24 hours", "setting": "[2]; Table B2, 20 μg/bottle", "result": 82.1, "unit": "%"},
      {"measurement": "Mean % mortality 60 minutes", "setting": "[3]; Table B1, 20 μg/bottle", "result": 45.6, "unit": "%"},
      {"measurement": "Mean % mortality 24 hours", "setting": "[3]; Table B1, 20 μg/bottle", "result": 80, "unit": "%"},
      {"measurement": "Mean % mortality 60 minutes", "setting": "[3]; Table B3, 20 μg/bottle", "result": 99.1, "unit": "%"},
      {"measurement": "Mean % mortality 24 hours", "setting": "[3]; Table B3, 20 μg/bottle", "result": 91.7, "unit": "%"},
      {"measurement": "Mean % mortality 60 minutes", "setting": "[4]; Table B2, 20 μg/bottle", "result": 12.5, "unit": "%"},
      {"measurement": "Mean % mortality 24 hours", "setting": "[4]; Table B2, 20 μg/bottle", "result": 13.9, "unit": "%"},
      {"measurement": "Mean % mortality 60 minutes", "setting": "[5]; Table B1, 20 μg/bottle", "result": 100, "unit": "%"},
      {"measurement": "Mean % mortality 24 hours", "setting": "[5]; Table B1, 20 μg/bottle", "result": 100, "unit": "%"}
    ]}
  ]
}
